In patent US11083196B2, “Microbiocidal oxadiazole derivatives” (SYNGENTA PARTICIPATIONS AG, priority 2016, dated 2021):

Tests used:
[1] = tested on: Puccinia recondita f. sp. tritici; experiment: Fungicidal activity against Puccinia recondita f. sp. tritici / wheat / leaf disc preventative (brown rust); type: in vivo; conditions: foliar, 168 h, wheat leaf segments cv. Kanzler, inoculated 1 day after application, assessed 7-9 days after application, compared to untreated control
Method: Leaf disks or leaf segments of various plant species are cut from plants grown in a greenhouse. The cut leaf disks or segments are placed in multiwell plates (24-well format) onto water agar. The leaf disks are sprayed with a test solution before (preventative) or after (curative) inoculation. Compounds to be tested are prepared as DMSO solutions (max. 10 mg/ml) which are diluted to the appropriate concentration with 0.025% Tween20 just before spraying. The inoculated leaf disks or segments are incubated under defined conditions (temperature, relative humidity, light, etc.) according to the respective test system. A single evaluation of disease level is carried out 3 to 14 days after inoculation, depending on the pathosystem. Percent disease control relative to the untreated check leaf disks or segments is then calculated. Wheat leaf segments cv. Kanzler are placed on agar in multiwell plates (24-well format) and sprayed with the formulated test compound diluted in water. The leaf disks are inoculated with a spore suspension of the fungus 1 day after application. The inoculated leaf segments are incubated at 19° C. and 75% rh under a light regime of 12 h light/12 h darkness in a climate cabinet and the activity of a compound is assessed as percent disease control compared to untreated when an appropriate level of disease damage appears in untreated check leaf segments (7-9 days after application).

[2] = tested on: Puccinia recondita f. sp. tritici; experiment: Fungicidal activity against Puccinia recondita f. sp. tritici / wheat / leaf disc curative (brown rust); type: in vivo; conditions: foliar, 144 h, wheat leaf segments cv. Kanzler, applied 1 day after inoculation, assessed 6-8 days after application, compared to untreated control
Method: Leaf disks or leaf segments of various plant species are cut from plants grown in a greenhouse. The cut leaf disks or segments are placed in multiwell plates (24-well format) onto water agar. The leaf disks are sprayed with a test solution before (preventative) or after (curative) inoculation. Compounds to be tested are prepared as DMSO solutions (max. 10 mg/ml) which are diluted to the appropriate concentration with 0.025% Tween20 just before spraying. The inoculated leaf disks or segments are incubated under defined conditions (temperature, relative humidity, light, etc.) according to the respective test system. A single evaluation of disease level is carried out 3 to 14 days after inoculation, depending on the pathosystem. Percent disease control relative to the untreated check leaf disks or segments is then calculated. Wheat leaf segments cv. Kanzler are placed on agar in multiwell plates (24-well format). The leaf segments are inoculated with a spore suspension of the fungus. Plates are stored in darkness at 19° C. and 75% rh. The formulated test compound diluted in water is applied 1 day after inoculation. The leaf segments are incubated at 19° C. and 75% rh under a light regime of 12 h light/12 h darkness in a climate cabinet and the activity of a compound is assessed as percent disease control compared to untreated when an appropriate level of disease damage appears in untreated check leaf segments (6-8 days after application).

[3] = tested on: Glomerella lagenarium (Colletotrichum lagenarium); experiment: Fungicidal activity against Glomerella lagenarium (Colletotrichum lagenarium), liquid culture / cucumber / preventative (anthracnose); type: cell-based; conditions: Colletotrichum orbiculare, liquid culture (PDB), growth inhibition measured photometrically 3-4 days after application, compared to untreated control
Method: Mycelia fragments or conidia suspensions of a fungus, prepared either freshly from liquid cultures of the fungus or from cryogenic storage, are directly mixed into nutrient broth. DMSO solutions of the test compound (max. 10 mg/ml) is diluted with 0.025% Tween20 by a factor of 50 and 10 μl of this solution is pipetted into a microtiter plate (96-well format). The nutrient broth containing the fungal spores/mycelia fragments is then added to give an end concentration of the tested compound. The test plates are incubated in the dark at 24° C. and 96% relative humidity. The inhibition of fungal growth is determined photometrically after 2 to 7 days, depending on the pathosystem, and percent antifungal activity relative to the untreated check is calculated. Conidia of the fungus from cryogenic storage are directly mixed into nutrient broth (PDB potato dextrose broth). After placing a (DMSO) solution of test compound into a microtiter plate (96-well format), the nutrient broth containing the fungal spores is added. The test plates are incubated at 24° C. and the inhibition of growth is measured photometrically 3-4 days after application.

Row | SMILES | pest or weed control at 200 ppm [1] | melting point | pest or weed control at 200 ppm [2] | inhibition of growth at 20 ppm [3]
1 | CC1(C)COC(c2ccc(-c3noc(C(F)(F)F)n3)cc2)=N1 [Compound A-2, 3-[4-(4,4-dimethyl-5H-oxazol-2-yl)phenyl]-5-(trifluoromethyl)-1,2,4-oxadiazole] | ≥ 80% | 70 to 75 °C | ≥ 80% | ≥ 80%
2 | COC(=O)C1CC(c2ccc(-c3noc(C(F)(F)F)n3)cc2)=NO1 (stereo not shown) [Compound A-8, methyl 3-[4-[5-(trifluoromethyl)-1,2,4-oxadiazol-3-yl]phenyl]-4,5-dihydroisoxazole-5-carboxylate] | ≥ 80% | – | – | ≥ 80%
3 | CC1(C)CC(=O)NC(c2ccc(-c3noc(C(F)(F)F)n3)cc2)O1 (stereo not shown) [Compound A-11, 6,6-dimethyl-2-[4-[5-(trifluoromethyl)-1,2,4-oxadiazol-3-yl]phenyl]-1,3-oxazinan-4-one] | ≥ 80% | – | ≥ 80% | ≥ 80%
4 | CC1=NOC(C)(c2ccc(-c3noc(C(F)(F)F)n3)cc2)C1 (stereo not shown) [Compound A-13, 3-[4-(3,5-dimethyl-4H-isoxazol-5-yl)phenyl]-5-(trifluoromethyl)-1,2,4-oxadiazole] | ≥ 80% | – | ≥ 80% | ≥ 80%
5 | O=C(NC1CSC(c2ccc(-c3noc(C(F)(F)F)n3)c(F)c2)=N1)C1CC1 (stereo not shown) [Compound A-22, N-[2-[3-fluoro-4-[5-(trifluoromethyl)-1,2,4-oxadiazol-3-yl]phenyl]-4,5-dihydrothiazol-4-yl]cyclopropanecarboxamide] | – | – | ≥ 80% | ≥ 80%
6 | Cc1ccccc1C(=O)NC1CSC(c2ccc(-c3noc(C(F)(F)F)n3)c(F)c2)=N1 (stereo not shown) [Compound A-23, N-[2-[3-fluoro-4-[5-(trifluoromethyl)-1,2,4-oxadiazol-3-yl]phenyl]-4,5-dihydrothiazol-4-yl]-2-methyl-benzamids] | ≥ 80% | 144 to 155 °C | – | ≥ 80%
7 | CN(C)C(=O)C(=O)NC1CSC(c2ccc(-c3noc(C(F)(F)F)n3)c(F)c2)=N1 (stereo not shown) [Compound A-24, N-[2-[3-fluoro-4-[5-(trifluoromethyl)-1,2,4-oxadiazol-3-yl]phenyl]-4,5-dihydrothiazol-4-yl]-N′,N′-dimethyl-oxamide] | ≥ 80% | 120 to 165 °C | ≥ 80% | ≥ 80%
8 | COCC(=O)NC1CSC(c2ccc(-c3noc(C(F)(F)F)n3)c(F)c2)=N1 (stereo not shown) [Compound A-25, N-[2-[3-fluoro-4-[5-(trifluoromethyl)-1,2,4-oxadiazol-3-yl]phenyl]-4,5-dihydrothiazol-4-yl]-2-methoxy-acetamide] | ≥ 80% | 141 to 175 °C | – | ≥ 80%
9 | CC(C)(C)[S+]([O-])NC1CSC(c2ccc(-c3noc(C(F)(F)F)n3)c(F)c2)=N1 (stereo not shown) [Compound A-26, N-[2-[3-fluoro-4-[5-(trifluoromethyl)-1,2,4-oxadiazol-3-yl]phenyl]-4,5-dihydro-thiazol-4-yl]-2-methyl-propane-2-sulfinamide] | ≥ 80% | – | ≥ 80% | ≥ 80%
10 | CS(=O)(=O)N1CCCC1c1ccc(-c2noc(C(F)(F)F)n2)cc1 (stereo not shown) [Compound A-30, 3-[4-(1-methylsulfonyl-pyrrolidin-2-yl)phenyl]-5-(trifluoromethyl)-1,2,4-oxadiazole] | ≥ 80% | 117.7 to 118.6 °C | ≥ 80% | ≥ 80%
11 | CON(C)C(=O)N1CCCC1c1ccc(-c2noc(C(F)(F)F)n2)cc1 (stereo not shown) [Compound A-31, N-methoxy-N-methyl-2-[4-[5-(trifluoromethyl)-1,2,4-oxadiazol-3-yl]phenyl]pyrrolidine-1-carboxamide] | ≥ 80% | – | ≥ 80% | ≥ 80%
12 | COC(=O)N1CCCC1c1ccc(-c2noc(C(F)(F)F)n2)cc1 (stereo not shown) [Compound A-32, methyl 2-[4-[5-(trifluoromethyl)-1,2,4-oxadiazol-3-yl]phenyl]pyrrolidine-1-carboxylate] | – | – | ≥ 80% | ≥ 80%
13 | COCC(=O)N1CCCC1c1ccc(-c2noc(C(F)(F)F)n2)cc1 (stereo not shown) [Compound A-33, 2-methoxy-1-[2-[4-[5-(trifluoromethyl)-1,2,4-oxadiazol-3-yl]phenyl]pyrrolidin-1-yl]ethanone] | ≥ 80% | – | ≥ 80% | ≥ 80%
14 | O=C(N1CCCC1c1ccc(-c2noc(C(F)(F)F)n2)cc1)n1ccnc1 (stereo not shown) [Compound A-35, imidazol-1-yl-[2-[4-[5-(trifluoromethyl)-1,2,4-oxadiazol-3-yl]phenyl]pyrrolidin-1-yl]methanone] | ≥ 80% | – | ≥ 80% | ≥ 80%
15 | CCC(=O)N1CCCC1c1ccc(-c2noc(C(F)(F)F)n2)cc1 (stereo not shown) [Compound A-37, 1-[2-[4-[5-(trifluoromethyl)-1,2,4-oxadiazol-3-yl]phenyl]pyrrolidin-1-yl]propan-1-one] | – | – | ≥ 80% | ≥ 80%
16 | CC(=O)N1CCCC1c1ccc(-c2noc(C(F)(F)F)n2)cc1 (stereo not shown) [Compound A-38, 1-[2-[4-[5-(trifluoromethyl)-1,2,4-oxadiazol-3-yl]phenyl]pyrrolidin-1-yl]ethanone] | ≥ 80% | – | ≥ 80% | ≥ 80%
17 | FC(F)(F)c1nc(-c2ccc(-c3ncco3)cc2)no1 [Compound C-3, 3-(4-oxazol-2-ylphenyl)-5-(trifluoromethyl)-1,2,4-oxadiazole] | ≥ 80% | 94 to 97 °C | ≥ 80% | –
18 | Cc1csc(-c2ccc(-c3noc(C(F)(F)F)n3)cc2)n1 [Compound C-8, 3-[4-(4-methylthiazol-2-yl)phenyl]-5-(trifluoromethyl)-1,2,4-oxadiazole] | – | 89 to 90 °C | ≥ 80% | ≥ 80%
19 | FC(F)(F)c1nc(-c2ccc(-c3nc(CCl)cs3)cc2)no1 [Compound C-9, 3-[4-[4-(chloromethyl)thiazol-2-yl]phenyl]-5-(trifluoromethyl)-1,2,4-oxadiazole] | ≥ 80% | 91 to 92 °C | – | ≥ 80%
20 | Cc1cc(-c2ccc(-c3noc(C(F)(F)F)n3)cc2)on1 [Compound C-11, 3-[4-(3-methylisoxazol-5-yl)phenyl]-5-(trifluoromethyl)-1,2,4-oxadiazole] | ≥ 80% | – | ≥ 80% | –
21 | Nc1cccc(-c2ccc(-c3noc(C(F)(F)F)n3)cc2)n1 [Compound D-15, 6-[4-[5-(trifluoromethyl)-1,2,4-oxadiazol-3-yl]phenyl]pyridin-2-amine] | ≥ 80% | 135 to 140 °C | – | ≥ 80%
22 | O=C(Nc1cc(-c2ccc(-c3noc(C(F)(F)F)n3)cc2)ccn1)C(F)(F)F [Compound D-19, 2,2,2-trifluoro-N-[4-[4-[5-(trifluoromethyl)-1,2,4-oxadiazol-3-yl]phenyl]-2-pyridyl]acetamide] | ≥ 80% | 230 to 235 °C | – | ≥ 80%
